In PubChem BioAssay (NCI):
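How tested: cells in 96-well plates exposed to compound for 48 hours at five concentrations. Abbreviation: GI50, concentration required for 50% inhibition of growth. TGI: total growth inhibition.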

Experiments:
Test in all cases: growth of human tumour cells (NCI), 48 h
U251 CNS = test system: U251 CNS
MALME-3M melanoma = test system: MALME-3M melanoma
SW-620 colon = test system: SW-620 colon
HOP-62 NSCLC = test system: HOP-62 NSCLC
SR leukemia = test system: SR leukemia
MDA-MB-435 = test system: MDA-MB-435
NCI-H226 lung = test system: NCI-H226 lung
HCT-15 colon = test system: HCT-15 colon
HCC-2998 colon = test system: HCC-2998 colon
RXF 393 renal = test system: RXF 393 renal
UO-31 renal = test system: UO-31 renal
MCF7 breast = test system: MCF7 breast
SF-295 CNS = test system: SF-295 CNS
BT-549 breast = test system: BT-549 breast
K-562 leukemia = test system: K-562 leukemia
A549 NSCLC = test system: A549 NSCLC
NCI/ADR-RES ovarian = test system: NCI/ADR-RES ovarian
NCI-H522 lung = test system: NCI-H522 lung
UACC-257 melanoma = test system: UACC-257 melanoma
MOLT-4 leukemia = test system: MOLT-4 leukemia
IGROV1 ovarian = test system: IGROV1 ovarian
CCRF-CEM leukemia = test system: CCRF-CEM leukemia
NCI-H460 lung = test system: NCI-H460 lung
A498 renal = test system: A498 renal
SK-MEL-5 melanoma = test system: SK-MEL-5 melanoma
HT29 colon = test system: HT29 colon
UACC-62 melanoma = test system: UACC-62 melanoma
SK-MEL-28 melanoma = test system: SK-MEL-28 melanoma
SF-268 CNS = test system: SF-268 CNS
HS 578T breast = test system: HS 578T breast
NCI-H23 lung = test system: NCI-H23 lung
PC-3 prostate = test system: PC-3 prostate
DU-145 prostate = test system: DU-145 prostate
786-0 renal = test system: 786-0 renal
HCT-116 colon = test system: HCT-116 colon
TK-10 renal = test system: TK-10 renal
SNB-75 CNS = test system: SNB-75 CNS
OVCAR-5 ovarian = test system: OVCAR-5 ovarian
KM12 colon = test system: KM12 colon
MDA-MB-231 breast = test system: MDA-MB-231 breast
SNB-19 CNS = test system: SNB-19 CNS
HOP-92 NSCLC = test system: HOP-92 NSCLC
SK-MEL-2 melanoma = test system: SK-MEL-2 melanoma
RPMI-8226 leukemia = test system: RPMI-8226 leukemia
HL-60(TB) leukemia = test system: HL-60(TB) leukemia
M14 melanoma = test system: M14 melanoma
OVCAR-4 ovarian = test system: OVCAR-4 ovarian
SF-539 CNS = test system: SF-539 CNS
T-47D breast = test system: T-47D breast
SN12C renal = test system: SN12C renal
COLO 205 colon = test system: COLO 205 colon
OVCAR-8 ovarian = test system: OVCAR-8 ovarian
OVCAR-3 ovarian = test system: OVCAR-3 ovarian
LOX IMVI melanoma = test system: LOX IMVI melanoma
CAKI-1 renal = test system: CAKI-1 renal
SK-OV-3 ovarian = test system: SK-OV-3 ovarian

Work on `CCN(CC)CCCC(C)N=c1cc(Nc2cc(=NC(C)CCCN(CC)CC)c3cc(OC)ccc3o2)oc2ccc(OC)cc12` (configuration not stated) yielded a GI50 (U251 CNS) of 1.15 µM, a TGI (U251 CNS) of 3.4 µM and a GI50 (MALME-3M melanoma) of 0.937 µM. It also gave a TGI (MALME-3M melanoma) of 1.74 µM, a GI50 (SW-620 colon) of 0.672 µM and a TGI (SW-620 colon) of 3.04 µM. It also gave a GI50 (HOP-62 NSCLC) of 0.734 µM, a TGI (HOP-62 NSCLC) of 2.16 µM and a GI50 (SR leukemia) of 0.943 µM. It also gave a TGI (SR leukemia) of 3.02 µM, a GI50 (MDA-MB-435) of 0.871 µM and a TGI (MDA-MB-435) of 1.68 µM. It also gave a GI50 (NCI-H226 lung) of 0.58 µM, a TGI (NCI-H226 lung) of 2.37 µM and a GI50 (HCT-15 colon) of 0.851 µM. The TGI (HCT-15 colon) was 2.33 µM, the GI50 (HCC-2998 colon) was 1.85 µM and the TGI (HCC-2998 colon) was 7.14 µM. It also gave a GI50 (RXF 393 renal) of 0.528 µM, a TGI (RXF 393 renal) of 1.17 µM and a GI50 (UO-31 renal) of 0.874 µM. For the same compound, the TGI (UO-31 renal) was 4.9 µM, the GI50 (MCF7 breast) was 1.08 µM and the TGI (MCF7 breast) was 3.68 µM. The GI50 (SF-295 CNS) was 1.1 µM, the TGI (SF-295 CNS) was 3.14 µM and the GI50 (BT-549 breast) was 3.16 µM. For the same compound, the TGI (BT-549 breast) was 9.49 µM, the GI50 (K-562 leukemia) was 1.19 µM and the TGI (K-562 leukemia) was 4.76 µM. The GI50 (A549 NSCLC) was 0.849 µM, the TGI (A549 NSCLC) was 1.87 µM and the GI50 (NCI/ADR-RES ovarian) was 2.09 µM. For the same compound, the TGI (NCI/ADR-RES ovarian) was 15.3 µM, the GI50 (NCI-H522 lung) was 1.04 µM and the TGI (NCI-H522 lung) was 2.15 µM. For the same compound, the GI50 (UACC-257 melanoma) was 0.872 µM, the TGI (UACC-257 melanoma) was 1.67 µM and the GI50 (MOLT-4 leukemia) was 0.725 µM. The TGI (MOLT-4 leukemia) was 2.93 µM, the GI50 (IGROV1 ovarian) was 1.89 µM and the TGI (IGROV1 ovarian) was 8.72 µM. The GI50 (CCRF-CEM leukemia) was 2 µM, the TGI (CCRF-CEM leukemia) was 16.3 µM and the GI50 (NCI-H460 lung) was 0.679 µM. It also gave a TGI (NCI-H460 lung) of 2.15 µM, a GI50 (A498 renal) of 1.15 µM and a TGI (A498 renal) of 7.83 µM. The GI50 (SK-MEL-5 melanoma) was 0.731 µM, the TGI (SK-MEL-5 melanoma) was 1.39 µM and the GI50 (HT29 colon) was 0.588 µM. For the same compound, the TGI (HT29 colon) was 1.97 µM, the GI50 (UACC-62 melanoma) was 1.04 µM and the TGI (UACC-62 melanoma) was 2.39 µM. It also gave a GI50 (SK-MEL-28 melanoma) of 0.838 µM, a TGI (SK-MEL-28 melanoma) of 1.52 µM and a GI50 (SF-268 CNS) of 2.15 µM. For the same compound, the TGI (SF-268 CNS) was 8.72 µM, the GI50 (HS 578T breast) was 3.33 µM and the TGI (HS 578T breast) was 14.8 µM. The GI50 (NCI-H23 lung) was 3.18 µM, the TGI (NCI-H23 lung) was 12.7 µM and the GI50 (PC-3 prostate) was 1.49 µM. The TGI (PC-3 prostate) was 6.8 µM, the GI50 (DU-145 prostate) was 1.17 µM and the TGI (DU-145 prostate) was 3.19 µM. It also gave a GI50 (786-0 renal) of 2.26 µM, a TGI (786-0 renal) of 8.01 µM and a GI50 (HCT-116 colon) of 0.683 µM. The TGI (HCT-116 colon) was 1.81 µM, the GI50 (TK-10 renal) was 1.3 µM and the TGI (TK-10 renal) was 3.22 µM. The GI50 (SNB-75 CNS) was 0.829 µM, the TGI (SNB-75 CNS) was 2.93 µM and the GI50 (OVCAR-5 ovarian) was 0.89 µM. For the same compound, the TGI (OVCAR-5 ovarian) was 2.38 µM, the GI50 (KM12 colon) was 1.62 µM and the TGI (KM12 colon) was 5.63 µM. For the same compound, the GI50 (MDA-MB-231 breast) was 0.666 µM, the TGI (MDA-MB-231 breast) was 1.88 µM and the GI50 (SNB-19 CNS) was 1.99 µM. It also gave a TGI (SNB-19 CNS) of 13 µM, a GI50 (HOP-92 NSCLC) of 0.513 µM and a TGI (HOP-92 NSCLC) of 3.15 µM. It also gave a GI50 (SK-MEL-2 melanoma) of 1.35 µM, a TGI (SK-MEL-2 melanoma) of 2.71 µM and a GI50 (RPMI-8226 leukemia) of 1.24 µM. The TGI (RPMI-8226 leukemia) was 3.41 µM, the GI50 (HL-60(TB) leukemia) was 2.66 µM and the TGI (HL-60(TB) leukemia) was 13.2 µM. The GI50 (M14 melanoma) was 0.967 µM, the TGI (M14 melanoma) was 1.79 µM and the GI50 (OVCAR-4 ovarian) was 0.723 µM. It also gave a TGI (OVCAR-4 ovarian) of 1.71 µM, a GI50 (SF-539 CNS) of 0.803 µM and a TGI (SF-539 CNS) of 1.5 µM. The GI50 (T-47D breast) was 2.92 µM, the TGI (T-47D breast) was 13.2 µM and the GI50 (SN12C renal) was 1.4 µM. The TGI (SN12C renal) was 11.8 µM, the GI50 (COLO 205 colon) was 0.632 µM and the TGI (COLO 205 colon) was 1.36 µM. The GI50 (OVCAR-8 ovarian) was 0.441 µM, the TGI (OVCAR-8 ovarian) was 3.78 µM and the GI50 (OVCAR-3 ovarian) was 1.29 µM. The TGI (OVCAR-3 ovarian) was 2.92 µM, the GI50 (LOX IMVI melanoma) was 1.02 µM and the TGI (LOX IMVI melanoma) was 2.29 µM. It also gave a GI50 (CAKI-1 renal) of 1.34 µM, a TGI (CAKI-1 renal) of 5.75 µM and a GI50 (SK-OV-3 ovarian) of 1.31 µM. For the same compound, the TGI (SK-OV-3 ovarian) was 4.13 µM.
